In patent publication US12403159B2, “Therapeutic metal complexes and ligands and methods of making and using the same” (Oregon State University, priority 2017, dated 2025):

Experiments:
Cu,Zn SOD (human SOD) = test: Mass spectrometric assay of mature/immature SOD in CNS tissue of treated CCS×SOD^WT transgenic mice; format: in vivo; details: CSS×SOD^WT transgenic mice; for increase in mature SOD compared to untreated SOD^WT mice: FIG. 4
Protocol: Tissue Preparation for SOD and Cytochrome c Oxidase assays—Whole brains and spinal cords were rapidly dissected from euthanized transgenic mice, immediately frozen in liquid nitrogen, and then stored at −80° C. until use. To prepare brain tissue for mass spectrometry or cytochrome c oxidase assay, frozen brains were first placed on a plate on top of a slab of dry ice so that the brittle frozen tissue could warm to a temperature that allowed sectioning with a razor blade (approx. −10° C.). Motor cortex and surrounding cerebrum was then sectioned to a thickness of approximately 1 mm with a razor blade. A 500 μm biopsy needle was used to isolate three ˜250 μg punches from each mouse tissue, which provided technical replicates for mass spectrometry and cytochrome c oxidase examples. Tissue punches were weighed using a Cahn 25 Automatic Electrobalance (Cerritos, CA, USA) with a sensitivity of ±0.1 μg. Tissue punches were homogenized for 12 seconds using a VWR Handheld cordless motorized homogenizer to a concentration of 5 μg tissue/μl of homogenization buffer. Homogenization buffer (made fresh daily) was 10 mM ammonium acetate, pH 5.0-5.1. For SOD measurements, 300 nM bovine SOD (Sigma) was added as an internal standard. The ratio of human SOD to the bovine SOD internal standard was used to calculate the concentration of human SOD detected in mouse tissue. After homogenizing, samples were centrifuged for 2 minutes at 16000×g at 4° C. in an Eppendorf 5415 R centrifuge to pellet cell debris. Supernatant was transferred to a clean tube for mass spectrometry or cytochrome c oxidase assays. […]
An LTQ-FT Ultra hybrid linear ion trap-Fourier transform ion cyclotron resonance mass spectrometer (Thermo, San Jose, Calif.) with a Finnigan Ion Max API source configured for electrospray ionization (ESI) in positive ion mode was used for all mass spectrometry experiments. All SOD quantitation was performed using the linear ion trap with scan range of 800 to 2000 m/z, which allowed for detection of SOD multiple charge states +9 through +13. […]
Data were quantified in a custom Matlab program. […]

[1] = Reduction versus oxidation standard potentials (anhydrous DMSO); format: physicochemical; details: relative to CuPhMeTSM; FIG. 3
Text: The low reduction potential or, phrased differently, the high copper affinity of the ATSM ligand for cupric ion (in the 2+ ionization state) prevents copper release in most tissues, but allows selective release of copper in hypoxic tissues or in cells with damaged mitochondrial electron transport chains; however, even slight modifications of the CuATSM compound (e.g., removing one or both methyl groups from the carbon atoms of the diimine functional groups) results in rapid copper release that can result in toxicity in SOD ALS models. […] Continued treatment thus is necessary to provide sufficient copper for CCS to complete the maturation of Cu,Zn SOD. But, such continued treatment also has the potential to cause toxicity due to greater copper intake. Furthermore, given the negative reduction potential of CuATSM, it is very difficult to reduce, which is reflected in the slow efficacy in replenishing SOD and COX extending over weeks. As a consequence, the majority of CuATSM (e.g., >95%) is eliminated in urine with copper still bound. […] See, for example, FIG. 3, which illustrates reduction (left) versus oxidation standard potentials (right) for ligand components (as determined in anhydrous DMSO). […]

[2] = Elimination of CuATSM in urine; details: in vivo
Text: This crystallization and high melting point create issues with forming an orally-active CuATSM compound and prevents the use of solid dispersant methods to formulate the complex for oral delivery. As such, producing formulations having appropriate dosage limits of CuATSM remains a limitation in using this compound therapeutically, particularly in view of CuATSM's propensity to gradually crystalize out of matrices and form insoluble crystals. Large amounts of crystallized CuATSM passes into the bowels, and thereby contributes to gastrointestinal distress. […]
The low reduction potential or, phrased differently, the high copper affinity of the ATSM ligand for cupric ion (in the 2+ ionization state) prevents copper release in most tissues, but allows selective release of copper in hypoxic tissues or in cells with damaged mitochondrial electron transport chains; however, even slight modifications of the CuATSM compound (e.g., removing one or both methyl groups from the carbon atoms of the diimine functional groups) results in rapid copper release that can result in toxicity in SOD ALS models. […] See, for example, FIG. 3, which illustrates reduction (left) versus oxidation standard potentials (right) for ligand components (as determined in anhydrous DMSO). […]

cytochrome c oxidase = test: Cytochrome c oxidase assay in brain and spinal cord of treated mice; format: in vivo; details: brain (FIG. 7A) and spinal cord (FIG. 7B); dermally with DMSO, 50 mg/kg/day once daily from four days of age, measured at day 21
Protocol: Tissue Preparation for SOD and Cytochrome c Oxidase assays—Whole brains and spinal cords were rapidly dissected from euthanized transgenic mice, immediately frozen in liquid nitrogen, and then stored at −80° C. until use. To prepare brain tissue for mass spectrometry or cytochrome c oxidase assay, frozen brains were first placed on a plate on top of a slab of dry ice so that the brittle frozen tissue could warm to a temperature that allowed sectioning with a razor blade (approx. −10° C.). Motor cortex and surrounding cerebrum was then sectioned to a thickness of approximately 1 mm with a razor blade. […] The ratio of human SOD to the bovine SOD internal standard was used to calculate the concentration of human SOD detected in mouse tissue. […]
Cytochrome c oxidase assay—The assay buffer included 30 uM reduced cytochrome c in 50 mM potassium phosphate buffer pH 7.0 containing 20 μM EDTA and 24 units/ml catalase. The final dilution of reduced cytochrome c stock should yield an absorbance at 550 nm of 0.7. […] To minimize interference from turbidity, the absorbance at 550 nm minus the absorbance at 580 nm was monitored. The change in absorbance was measured for one minute. Then, 2 μl of 100 mM sodium cyanide and the absorbance change was monitored for another 20 seconds. […]

G93A SOD×CCS mice = test: Survival of G93A SOD×CCS mice under treatment; format: in vivo
Protocol: In this example, G93A SOD×CCS mice were treated with 50 mg/kg/day of CuPhMeTSM transdermally starting at 4 days of age. The compound was able to keep six G93A SOD×CCS mice alive for 300 days (n=6). Results are illustrated in FIG. 10.

juvenile mice = test: Effect of free ligands on growth of juvenile mice; format: in vivo
Text: Another limitation is that the ATSM ligand component of the CuATSM complex is pharmacologically active in binding metals and thus can react in potentially undesirable side reactions.

Row | effect on growth of juvenile mice (juvenile mice) | Molecule | increase in mature SOD compared to untreated SOD^WT mice (Cu,Zn SOD (human SOD)) [µM] | increase in COX activity (cytochrome c oxidase) | other results
1 |  | CN=C([S-])N/N=C(C)/C(C)=N/NC([S-])=NC.[Cu+2] [CuATSM] | 13 |  | oxidation wave: oxidized more easily than CuPhMeTSM by [1]: ~40 mV; fraction eliminated in urine with copper still bound [2]: > 95%
2 |  | CNC1=NN=C(C)C(c2ccccc2)=NN=C(NC)[S][Cu][S]1 [CuPhMeTSM, copper phenylmethylTSM] | 60 | nearly twice the extent of CuATSM | decrease in amount of immature SOD (Cu,Zn SOD (human SOD); FIG. 6): decreased most; toxicity from the treatment (G93A SOD×CCS mice; G93A SOD×CCS mice, 50 mg/kg/day transdermally from 4 days of age): no toxicity apparent; time mice were kept alive (G93A SOD×CCS mice; G93A SOD×CCS mice, 50 mg/kg/day transdermally from 4 days of age, n=6): 300 days; mice still alive after receiving treatment (G93A SOD×CCS mice; low expressing G93A SOD mice crossed to CCS overexpressing mice, 50 mg/kg/day after four days of age, FIG. 10): nine out of 11
3 | significant delay in growth | CN/C(S)=N/N=C/C=N/N=C(\S)NC [GTSM] |  |  | 
4 | significant delay in growth | CN/C(S)=N/N=C/C(C)=N/N=C(\S)NC [PTSM] |  |  | 
5 |  | copper 4-nitrophenylmethylTSM [nitro analog] |  | not as effective as the CuPhMeTSM embodiment | 
